What was measured:
[1] = system: facial dyschromia and/or hyperpigmentation; test: Clinical study, investigator assessment of facial skin severity; format: in vivo, human; details: scale 0-9
Source text: Forty-three (43) participants (male and female; skin types I-IV; mean age 49.2) with mild to severe facial dyschromia and/or hyperpigmentation on the face were enrolled. Participants provided consent and agreed to limit their sun exposure for the duration of the study. Participants were required to comply with the skincare regimen and return for follow-up visits. This study population was deemed a large enough sample size for safety and efficacy. Only eligible participants were selected to participate. Participants that were enrolled and completed the 3-month study for this protocol were eligible to participate in the 3-month extension study.
(§1) Participants underwent up to 8 study visits: screening, baseline, and 3 follow-up visits in the main study, and a 12-week extension study extended to participants at the week 12 follow up visit, which included an additional 3 follow-up visits to be conducted over 12 weeks: week 16, 20, and a final visit at week 24. At the initial screening visit, participants were consented prior to any study procedures. Medical/aesthetic history, concomitant medications, and study eligibility were collected and assessed. The following procedures were performed at Baseline: Investigator assessments, photography, Optical Coherence Tomography (OCT) imaging of the skin (only at select sites). […] Participants were asked to return to the office for follow-up visits at 4, 8, and 12 weeks. […] Participants randomized to the topical study product continued use of the product throughout the duration of the study, along with the study provided cleanser and sunscreen to apply to their facial skin as previously instructed.
(§2) The products were supplied in a kit with a number and then dispensed according to the baseline grading of dyschromia.
As summarized in Table 15, investigator assessment of facial skin severity considered the overall appearance of dyschromia, skin tone (clarity and evenness), radiance, and skin texture, on the following scale: 0=none; 1-3=mild; 4-6=moderate; 7-9=severe.

[2] = system: facial dyschromia and/or hyperpigmentation; test: Clinical study, investigator mMASI scoring; format: in vivo, human
Source text: as §1, §2
Investigator mMASI scoring was performed using a modified MASI scoring method depicted in FIG. 13.

facial skin [3] = test: Clinical study, investigator assessment of tolerability (erythema, dryness, peeling); format: in vivo, human
Source text: as §1

facial skin [4] = test: Clinical study, participant assessment of tolerability (burning/stinging, tingling, itching); format: in vivo, human
Source text: as §1

[5] = system: facial dyschromia and/or hyperpigmentation; test: Clinical study, participant questionnaire; format: in vivo, human
Source text: as §1

facial skin [6] = details: human, in vivo, 12 weeks
Source text: Adverse events as assessed by investigators is an extremely important parameter for determining potential shortcomings of a product for treatment.

[7] = change week 0 to week 12, N = 44 study product, N = 42 HQ4%
[8] = week 0 (baseline), N = 44 study product, N = 42 HQ4%
[9] = week 12, N = 44 study product, N = 42 HQ4%

**Q.** `Oc1ccc(O)cc1` [HQ 4%, Hydroquinone] was tested. Which “Dyschromia, investigator score, mean change” value ([1]; change week 0 to week 12) did it give?
**A.** 0.9

**Q.** And the “Radiance, investigator score, mean change” value ([1]; change week 0 to week 12)?
**A.** 0.3

**Q.** What about the “Skin tone, investigator score, mean change” value ([1]; change week 0 to week 12) of the same compound?
**A.** 0.9

**Q.** What about the “Texture, investigator score, mean change” value ([1]; change week 0 to week 12) of the same compound?
**A.** 0

**Q.** And the “Dyschromia, investigator score, mean” value ([1]; week 0 (baseline))?
**A.** 5.7

**Q.** What about the “Radiance, investigator score, mean” value ([1]; week 0 (baseline)) of the same compound?
**A.** 5

**Q.** What about the “Skin tone, investigator score, mean” value ([1]; week 0 (baseline)) of the same compound?
**A.** 5.5

**Q.** And the “Texture, investigator score, mean” value ([1]; week 0 (baseline))?
**A.** 4.2

**Q.** What about the “Dyschromia, investigator score, mean” value ([1]; week 12) of the same compound?
**A.** 4.8

**Q.** And the “Radiance, investigator score, mean” value ([1]; week 12)?
**A.** 4.6

**Q.** And the “Skin tone, investigator score, mean” value ([1]; week 12)?
**A.** 4.7

**Q.** What about the “Texture, investigator score, mean” value ([1]; week 12) of the same compound?
**A.** 4.2

**Q.** What about the “Left mMASI, mean” value ([2]; Week 12) of the same compound?
**A.** 1.8

**Q.** And the “Left malar, mean” value ([2]; Week 12)?
**A.** 6

**Q.** And the “Right mMASI, mean” value ([2]; Week 12)?
**A.** 1.9

**Q.** And the “Right malar, mean” value ([2]; Week 12)?
**A.** 6.3

**Q.** And the “Total mMASI, mean” value ([2]; Week 12)?
**A.** 5.2

**Q.** What about the “Left mMASI, mean change” value ([2]; change week 0 to week 12) of the same compound?
**A.** 0.3

**Q.** What about the “Left malar, mean change” value ([2]; change week 0 to week 12) of the same compound?
**A.** 1.1

**Q.** And the “Right mMASI, mean change” value ([2]; change week 0 to week 12)?
**A.** 0.3

**Q.** What about the “Right malar, mean change” value ([2]; change week 0 to week 12) of the same compound?
**A.** 1.1

**Q.** And the “Total mMASI, mean change” value ([2]; change week 0 to week 12)?
**A.** 1

**Q.** What about the “Combined right and left mMASI, mean change” value [2, 7] of the same compound?
**A.** 0.3

**Q.** What about the “Combined right and left malar, mean change” value [2, 7] of the same compound?
**A.** 1.1

**Q.** And the “improvement in mMASI scoring at 12 weeks versus baseline” value ([2]; summary of Table 17)?
**A.** no such improvement

**Q.** What about the “Left mMASI, mean” value ([2]; week 0 (baseline)) of the same compound?
**A.** 2.2

**Q.** And the “Left malar, mean” value ([2]; week 0 (baseline))?
**A.** 7.2

**Q.** And the “Right mMASI, mean” value ([2]; week 0 (baseline))?
**A.** 2.2

**Q.** And the “Right malar, mean” value ([2]; week 0 (baseline))?
**A.** 7.4

**Q.** And the “Total mMASI, mean” value ([2]; week 0 (baseline))?
**A.** 6.1

**Q.** And the “Combined right and left mMASI, mean” value [2, 8]?
**A.** 2.2

**Q.** And the “Combined right and left malar, mean” value [2, 8]?
**A.** 7.3

**Q.** What about the “Combined right and left mMASI, mean” value [2, 9] of the same compound?
**A.** 1.9

**Q.** And the “Combined right and left malar, mean” value [2, 9]?
**A.** 6.2

**Q.** What about the “Dryness, percent of participants” value (facial skin [3]; Week 4) of the same compound?
**A.** 13.6%

**Q.** What about the “Erythema, percent of participants” value (facial skin [3]; Week 4) of the same compound?
**A.** 23%

**Q.** And the “Peeling, percent of participants” value (facial skin [3]; Week 4)?
**A.** 13.6%

**Q.** And the “Dryness, percent of participants” value (facial skin [3]; Week 8)?
**A.** 14%

**Q.** What about the “Erythema, percent of participants” value (facial skin [3]; Week 8) of the same compound?
**A.** 14%

**Q.** And the “Peeling, number of participants and grade” value (facial skin [3]; Week 8)?
**A.** 1 mild

**Q.** And the “Peeling, percent of participants” value (facial skin [3]; Week 8)?
**A.** 4.7%

**Q.** And the “Dryness, number of participants and grade” value (facial skin [3]; Week 12)?
**A.** 0

**Q.** And the “Erythema, number of participants and grade” value (facial skin [3]; Week 12)?
**A.** 4 minimal

**Q.** And the “Erythema, percent of participants” value (facial skin [3]; Week 12)?
**A.** 19%

**Q.** What about the “Peeling, number of participants and grade” value (facial skin [3]; Week 12) of the same compound?
**A.** 0

**Q.** What about the “Burning/Stinging, number of participants and grade” value (facial skin [4]; Week 4) of the same compound?
**A.** 6 minimal

**Q.** And the “Burning/Stinging, percent of participants” value (“Burning/Stinging, percent” below) (facial skin [4]; Week 4)?
**A.** 27%

**Q.** What about the “Itching, percent of participants” value (facial skin [4]; Week 4) of the same compound?
**A.** 36%

**Q.** What about the “Tingling, percent of participants” value (facial skin [4]; Week 4) of the same compound?
**A.** 18%

**Q.** And the “Burning/Stinging, percent” value (facial skin [4]; Week 8)?
**A.** 9.5%

**Q.** What about the “Itching, number of participants and grade” value (facial skin [4]; Week 8) of the same compound?
**A.** 1 minimal

**Q.** What about the “Itching, percent of participants” value (facial skin [4]; Week 8) of the same compound?
**A.** 4.7%

**Q.** And the “Tingling, number of participants and grade” value (facial skin [4]; Week 8)?
**A.** 1 mild

**Q.** And the “Tingling, percent of participants” value (facial skin [4]; Week 8)?
**A.** 4.7%

**Q.** What about the “Burning/Stinging, number of participants and grade” value (facial skin [4]; Week 12) of the same compound?
**A.** 2 minimal

**Q.** And the “Burning/Stinging, percent” value (facial skin [4]; Week 12)?
**A.** 9.5%

**Q.** And the “Itching, percent of participants” value (facial skin [4]; Week 12)?
**A.** 9.5%

**Q.** What about the “Tingling, number of participants and grade” value (facial skin [4]; Week 12) of the same compound?
**A.** 1 minimal

**Q.** What about the “Tingling, percent of participants” value (facial skin [4]; Week 12) of the same compound?
**A.** 4.7%

**Q.** What about the “participant-reported irritation versus the study product population” value (facial skin [4]; summary of Table 19) of the same compound?
**A.** irritation is increased across all parameters

**Q.** What about the “Improved the evenness of my skin tone, % Agree or Somewhat Agree” value ([5]; Week 4) of the same compound?
**A.** 76.19%

**Q.** What about the “Improved the overall appearance of my skin, % Agree or Somewhat Agree” value ([5]; Week 4) of the same compound?
**A.** 76.19%

**Q.** And the “Lessened the appearance of the dark spots and discoloration on my skin, % Agree or Somewhat Agree” value ([5]; Week 4)?
**A.** 80.95%

**Q.** What about the “Made me feel more confident in the way my skin looks, % Agree or Somewhat Agree” value ([5]; Week 4) of the same compound?
**A.** 61.90%

**Q.** What about the “Made my skin look brighter and more radiant, % Agree or Somewhat Agree” value ([5]; Week 4) of the same compound?
**A.** 66.67%

**Q.** And the “Made my skin look healthier, % Agree or Somewhat Agree” value ([5]; Week 4)?
**A.** 61.90%

**Q.** And the “Made my skin look more youthful, % Agree or Somewhat Agree” value ([5]; Week 4)?
**A.** 42.86%

**Q.** And the “Improved the overall appearance of my skin, % Agree or Somewhat Agree” value ([5]; Week 8)?
**A.** 85.71%

**Q.** And the “Lessened the appearance of the dark spots and discoloration on my skin, % Agree or Somewhat Agree” value ([5]; Week 8)?
**A.** 80.95%

**Q.** What about the “Made me feel more confident in the way my skin looks, % Agree or Somewhat Agree” value ([5]; Week 8) of the same compound?
**A.** 61.90%

**Q.** What about the “Made my skin look brighter and more radiant, % Agree or Somewhat Agree” value ([5]; Week 8) of the same compound?
**A.** 66.67%

**Q.** And the “Made my skin look healthier, % Agree or Somewhat Agree” value ([5]; Week 8)?
**A.** 71.43%

**Q.** And the “Made my skin look more youthful, % Agree or Somewhat Agree” value ([5]; Week 8)?
**A.** 71.43%

**Q.** And the “Improved the evenness of my skin tone, % Agree or Somewhat Agree” value ([5]; Week 12)?
**A.** 85.71%

**Q.** What about the “Improved the overall appearance of my skin, % Agree or Somewhat Agree” value ([5]; Week 12) of the same compound?
**A.** 85.71%

**Q.** What about the “Lessened the appearance of the dark spots and discoloration on my skin, % Agree or Somewhat Agree” value ([5]; Week 12) of the same compound?
**A.** 76.19%

**Q.** What about the “Made me feel more confident in the way my skin looks, % Agree or Somewhat Agree” value ([5]; Week 12) of the same compound?
**A.** 61.90%

**Q.** And the “Made my skin look brighter and more radiant, % Agree or Somewhat Agree” value ([5]; Week 12)?
**A.** 90.48%

**Q.** What about the “Made my skin look healthier, % Agree or Somewhat Agree” value ([5]; Week 12) of the same compound?
**A.** 85.71%

**Q.** What about the “Made my skin look more youthful, % Agree or Somewhat Agree” value ([5]; Week 12) of the same compound?
**A.** 71.43%

**Q.** And the “Improved the evenness of my skin tone, % Agree or Somewhat Agree” value ([5]; Week &)?
**A.** 85.71%

**Q.** What about the “adverse events, percent of population” value (facial skin [6]) of the same compound?
**A.** 23.8%

**Q.** And the “total number of adverse events reported” value (facial skin [6])?
**A.** 5
